A short description of assay [1]: Serum antibody titre on Lipid-A by ELISA after liposome immunization. It counts as in vivo, Balb/c mice. Particulars: Lipid-A liposomes with HEL[105-120], HEL primed. The protocol: i) A stock solution of lipids for the formation of liposomes was prepared by mixing 10 mM solutions of dimyristoyl phosphatidyl choline, dicetyl phosphate and cholesterol (all from Sigma Chemicals) in the ratio 1.0:0.11:0.75. This stock was aliquotted into 1.0 ml volumes and dried under argon and stored at -20° C. until used.
ii) 500 μg of immunogen 3D dissolved in CHCl3 was dried into a 50 ml round bottomed flask on a rotary evaporator. One aliquot of the lipid stock was dissolved in 1 ml of CHCl3 :MeOH (9:1) and added to the dried immunogen 3D. The dissolved lipids were thoroughly mixed then dried together on a rotary evaporator under argon until all solvent had been removed and then for an additional 15 mins. The flask was then placed in a high vacuum dessicator for 2 hrs. 1.0 ml of swelling solution, approximately 0.9% NaCl, was added to the dry lipid film with 0.5 g of glass beads and mixed vigorously by swirling and vortexing. Liposomes were allowed to swell at room temperature overnight. […]
Mice which were primed with HEL and immunized with Immunogen 3D("Imm-3D") and Lipid-A incorporated separately into liposomes along with the peptide HEL[105-120] […] Seven days after the final immunization, serum samples were taken and the titres of IgG and IgM anti-Lipid-A antibodies determined separately by ELISA. […]
(ELISA stands for enzyme-linked immunosorbent assay.)

Assay [2] deals with tumor cells. In words: Antitumor activity (Meth A fibrosarcoma, melanoma or Pro b cells). The format is in vivo. Particulars: 250, 100 or 10 μg/mouse or up to 10 μg/kg, intravenously or intratumorly.
For assay [3], the system named is Pseudomonas aeruginosa. The format is in vivo, Pseudomonas aeruginosa in ICR mice. Particulars: Lipid-A at 1 μg/mouse.

As for Lipid-A, in assay [1], the “IgG antibody responses to the eliciting antigen” value is reported as “enhanced IgG antibody responses”. Also, in assay [2], the tumor growth result is “retarded or prevented”. In addition, in assay [3], the “protective activity against gram-negative bacteria” value was “exhibits protective activity”.

For the origin of these results see patent US5593969A, “Lipid-A analogs: monosaccharide and dissaccharide compounds for inhibiting binding of lipid A receptors to lipid A receptors” (IGEN Incorporated, priority 1993, dated 1997).
